Read-outs that look alike come from different tables or passages of the source.
Target: T1, T1R2/T1R3 receptor (Homo sapiens, UniProt Q7RTX0+Q8TE23)
T1 sequence (Q8TE23 20-839): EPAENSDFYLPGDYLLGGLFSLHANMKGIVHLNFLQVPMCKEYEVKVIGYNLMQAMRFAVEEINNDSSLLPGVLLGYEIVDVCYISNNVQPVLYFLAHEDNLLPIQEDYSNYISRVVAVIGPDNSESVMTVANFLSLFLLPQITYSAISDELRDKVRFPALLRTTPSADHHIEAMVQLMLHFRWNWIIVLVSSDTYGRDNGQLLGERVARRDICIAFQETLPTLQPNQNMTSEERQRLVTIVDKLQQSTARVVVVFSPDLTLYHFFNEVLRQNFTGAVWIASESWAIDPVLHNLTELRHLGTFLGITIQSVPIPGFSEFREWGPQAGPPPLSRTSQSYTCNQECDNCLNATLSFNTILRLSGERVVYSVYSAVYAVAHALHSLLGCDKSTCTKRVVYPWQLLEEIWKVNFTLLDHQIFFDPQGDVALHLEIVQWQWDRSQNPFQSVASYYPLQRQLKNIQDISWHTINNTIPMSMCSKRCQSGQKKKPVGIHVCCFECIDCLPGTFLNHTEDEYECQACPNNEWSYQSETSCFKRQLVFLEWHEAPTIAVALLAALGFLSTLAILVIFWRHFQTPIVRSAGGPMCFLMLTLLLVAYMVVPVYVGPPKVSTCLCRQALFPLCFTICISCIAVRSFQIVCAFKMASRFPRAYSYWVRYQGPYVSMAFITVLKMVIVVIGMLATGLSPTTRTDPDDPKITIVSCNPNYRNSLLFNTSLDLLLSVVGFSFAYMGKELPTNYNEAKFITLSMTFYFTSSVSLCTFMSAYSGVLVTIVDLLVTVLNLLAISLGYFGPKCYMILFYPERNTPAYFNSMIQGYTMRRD
T1 sequence (Q7RTX0 21-852): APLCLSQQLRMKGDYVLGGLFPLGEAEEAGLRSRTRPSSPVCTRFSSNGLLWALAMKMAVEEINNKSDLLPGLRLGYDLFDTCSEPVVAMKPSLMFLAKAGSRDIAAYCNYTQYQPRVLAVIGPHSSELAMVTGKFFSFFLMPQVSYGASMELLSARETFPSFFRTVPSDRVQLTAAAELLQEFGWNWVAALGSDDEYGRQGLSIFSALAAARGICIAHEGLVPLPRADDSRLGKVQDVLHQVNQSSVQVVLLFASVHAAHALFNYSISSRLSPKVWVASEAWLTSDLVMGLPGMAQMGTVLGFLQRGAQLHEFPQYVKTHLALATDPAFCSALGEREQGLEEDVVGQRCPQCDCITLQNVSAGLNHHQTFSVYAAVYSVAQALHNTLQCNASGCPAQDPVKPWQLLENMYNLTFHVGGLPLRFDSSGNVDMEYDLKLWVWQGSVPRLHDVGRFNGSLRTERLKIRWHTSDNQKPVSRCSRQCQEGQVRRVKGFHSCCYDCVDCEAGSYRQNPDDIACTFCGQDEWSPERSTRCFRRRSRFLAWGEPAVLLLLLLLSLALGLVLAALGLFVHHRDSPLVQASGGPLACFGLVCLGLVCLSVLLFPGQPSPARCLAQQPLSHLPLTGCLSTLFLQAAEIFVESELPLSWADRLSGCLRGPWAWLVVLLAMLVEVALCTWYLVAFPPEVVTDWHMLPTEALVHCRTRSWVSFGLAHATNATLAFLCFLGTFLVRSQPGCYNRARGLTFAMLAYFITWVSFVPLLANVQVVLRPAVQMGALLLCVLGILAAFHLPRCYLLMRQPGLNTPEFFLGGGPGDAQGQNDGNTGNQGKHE
Details: for sensitivity of the assay to initiate receptor internalisation: comparison among the sweet compounds tested; for increase of chemiluminescence signal / internalisation response with concentration: shape of dose-response curve, Fig. 6A and 6B

[1] = Clone #1057 cells, 3 h at 20°C, n=3, Fig. 6
[2] = Clone #1057 cells, % (w/v), Fig. 6

From the text: Binding of beta-arrestin will then stimulate receptor internalisation to the endosome, bringing the EA (enzyme part fused to beta-arrestin) and ProLink (enzyme part fused to the endosome) enzyme parts of beta-gal in close proximity to each other, enabling the formation of a functional beta-gal enzyme. The level of functional beta-Gal formed is a measure for ligand-induced receptor internalisation activity and is quantified by lysing cells using the PathHunter™ substrate mix, allowing the conversion of substrate to chemiluminescence.
PathHunter™HEK293 Active Internalisation Parental cells (HEK-293 cells natively expressing the sweet taste receptor and comprising the enzyme complementation system) were maintained in high glucose Dulbecco's modified Eagle's medium (4.5 g/l D-glucose, L-glutamine, HEPES) supplemented with 10% fetal bovine serum (DMEM-HG) at 37°C, 5% CO2 and 90% humidity.
For the beta-arrestin mediated internalization assay cells were grown and maintained in DMEM-HG. […] After 18 h of glucose starvation, cells were seeded in DMEM-LG at a density of 2.5×10^4 cells per well in a clear Poly-D-Lysine coated 96-well plate (CellCoat; Greiner Bio-One GmbH, Frickenhausen, Germany) and incubated for 24 h. Next, the PathHunter™ Detection assay kit was used for receptor stimulation according to the manufacturer's instructions. […] After 3 h of incubation at 20°C, the stimulant was removed and PathHunter™ substrate was added in 100 µl CP10 Cell Plating Reagents. Luminescence was measured using an Infinite F200 (Tecan Group Ltd., Männedorf, Switzerland). Analysis was performed in triplicates (n=3). Data are presented as the mean luminescence change (ΔF) over the base-line level (F): ΔF/F = (F(stimulant)−F(negativecontrol))/F(negativecontrol).

Row | SMILES | concentration at which the maximum response (ΔF/Fmax) was reached [2] [%] | sensitivity of the assay to initiate receptor internalisation (Fig. 6) | increase of chemiluminescence signal / internalisation response with concentration | also measured
1 | OC[C@@H](O)[C@@H](O[C@H]1O[C@H](CO)[C@@H](O)[C@H](O)[C@H]1O)[C@H](O)[C@@H](O)CO [maltitol] | 17.0 | – | – | maximum level of chemiluminescence (ΔF/Fmax) [1]: nearly equal
2 | CC1=CC(=O)NS(=O)(=O)O1 [acesulfame-K] | – | – | – | concentration at which the maximum response (ΔF/Fmax) was reached: 5.5%
3 | OC[C@@H](O)[C@@H](O)[C@H](O)[C@H](O)CO [mannitol] | 7.7 | – | – | maximum level of chemiluminescence (ΔF/Fmax) [1]: nearly equal
4 | OC[C@H]1O[C@H](O[C@]2(CCl)O[C@H](CCl)[C@@H](O)[C@@H]2O)[C@H](O)[C@@H](O)[C@H]1Cl [sucralose] | 15 | high sensitivity | – | concentration at which receptor internalisation responses were initiated (Clone #1057 cells, Fig. 6): already observed at the lowest concentration tested
5 | OC[C@H]1O[C@@](CO)(O[C@H]2O[C@H](CO)[C@@H](O)[C@H](O)[C@H]2O)[C@@H](O)[C@@H]1O [sucrose] | – | – | rather slow increase | –
6 | O=C(CO)[C@@H](O)[C@H](O)[C@H](O)CO [fructose] | 9 | highest sensitivity | rather slow increase | maximum level of chemiluminescence (ΔF/Fmax) (human, hek293 cells, 3 h): 5.2
7 | OC[C@H]1O[C@H](O[C@H]2[C@H](O)[C@@H](O)[C@H](O)O[C@@H]2CO)[C@H](O)[C@@H](O)[C@@H]1O [maltose] | 16.5 | lowest sensitivity of the natural sugars tested | steep increase | –

Reference: EP3270157B1, “SCREENING ASSAY FOR SWEETNESS” (Firmenich SA, priority 2016, dated 2018)
